# Where two headings read alike, the source gives them in different places.
# Key:
# AR (human) = AR (human) (Homo sapiens (Human), UniProt P10275, T878A); test: Radioligand binding to AR; details: [3H]methyltrienolone, LNCaP cells (cytosol)
# Protocol: Radioligand binding assays were performed with the cell extracts and ligands as detailed below. Complete methodology is contained within the cited publications. Kd values were determined by Non-Specific Incubation Detection Method.
# AR (human) (agonist radioligand) LNCaP cells (cytosol)
# [^3H]methyltrienolone 1 nM 0.8 nM mibolerone (1 μM) 24 h 4° C. Scintillation counting.
# The results are expressed as a percent of control specific binding measured specific binding*100 control specific binding and as a percent inhibition of control specific binding 100-(measured specific binding*100) control specific binding obtained in the presence of compound.
# The IC50 values (concentration causing a half-maximal inhibition of control specific binding) and Hill coefficients (nH) were determined by non-linear regression analysis of the competition curves generated with mean replicate values using Hill equation curve fitting. Y=D+[A−D] 1+(C/C50)nH
# wherein Y=specific binding, A=left asymptote of the curve, D=right asymptote of the curve, C=compound concentration, C50=IC50, and nH=slope factor. […]
# The inhibition constants (Ki) were calculated using the Cheng Prusoff equation: Ki=[…]
# Radioligand binding inhibition and affinity calculations were determined using [^3H]-methyltrienolone, [^3H]-dexamethasone and [^3H]-estradiol for AR, GR and ER, respectively. […]
# 22RV1 cells = test: 22RV1 Proliferation Assay; format: cell-based; details: Homo sapiens, 120 h
# Protocol: (§1) 22RV1 were obtained from ATCC and cultured in RPMI 1640 supplemented with 10% FBS. Cells were seeded at a density of 4,500 cells/well into Greiner 384-well, white, optical-bottom plates in RPMI 1640 phenol red-free medium with 1% charcoal stripped FBS and incubated for 2 days at 37° C. The cells were treated with a compound of Formula (I) in 12-point dose-response both in the presence and absence of 0.1 nM R1881 for 5 days. To determine cell viability, CellTiter-Glo reagent (Promega) was added to each well according to the manufacturer's instructions, placed on a shaker at 300 rpm for 10 min, and luminescence recorded using an EnVision plate reader (Perkin Elmer). The data was exported to GraphPad Prism and analyzed using the Four Parameter equation to obtain IC50 values for each compound. Each compound was tested in at least three independent experiments.
# [1] = target: wild-type Androgen Receptor (AR-wt) (Homo sapiens (Human), UniProt P10275); test: LNCaP-AR-wt ANT reporter assay (antagonist mode); format: cell-based
# [2] = target: AR-FL and AR-V7 in 22RV1 cells; test: 22RV1 AR-FL and AR-V7 Transcriptional Reporter Assay; format: cell-based
# Protocol: as §1, with “of 15,000” for “of 4,500”, “compound or” for “compound of”, “12-point dose-response,” for “12-point dose-response”, “for 18-24 hrs. At the end of assay, Steady-Glo” for “for 5 days. To determine cell viability, CellTiter-Glo”
# [3] = tested on: androgen dependent signaling (androgen sensitive organs); test: Hershberger Assay; format: in vivo, rat
# Protocol: The effect of AR antagonists on androgen dependent signaling in vivo was assessed using the Hershberger assay. In this assay, peripubertal castrated male Sprague-Dawley rats were administered AR antagonists described herein in the presence of testosterone (0.4 mg/kg testosterone propionate) and the weights of androgen dependent organs measured. Dosing was continued for 10 days and measurements taken 24 h after the last dose. The extent of antagonism of AR and consequent inhibition of organ growth was evaluated by comparison to the castration control. Compounds of Formula (I) were dosed orally QD and an endpoint assessment made by change in weight of 5 androgen sensitive organs (ASO): Paired Cowper's Glands (CG), Seminal Vesicles with Fluids and Coagulating Glands (SVCG), Glans Penis (GP), Ventral Prostate (VP) and Levator Ani-Bulbocavernosus Complex (LABC)). According to assay guidelines, statistically significant suppression of ASO is required in 2 of 5 organs for a compound to be classified as an anti-androgen (analysis was performed by t-test/Mann-Whitney).
# Unless otherwise stated, compounds defined herein were administered at 30 mg/kg and flutamide (FT), positive control, at 3 mg/kg. All compounds were co-administered with testosterone propionate (TP, 0.4 mg/kg) which was also administered alone, untreated control, (castrated only rats served as the control for complete androgen blockade). A statistically significant change in ASO achieved in at least 2 of 5 organs was indicative of an active compound.
# [4] = 30 mg/kg orally QD, 10 days, with TP 0.4 mg/kg, castrated rats, mean ± SD (n=6)
# Chain of AR (human) (P10275 whole entry T878A): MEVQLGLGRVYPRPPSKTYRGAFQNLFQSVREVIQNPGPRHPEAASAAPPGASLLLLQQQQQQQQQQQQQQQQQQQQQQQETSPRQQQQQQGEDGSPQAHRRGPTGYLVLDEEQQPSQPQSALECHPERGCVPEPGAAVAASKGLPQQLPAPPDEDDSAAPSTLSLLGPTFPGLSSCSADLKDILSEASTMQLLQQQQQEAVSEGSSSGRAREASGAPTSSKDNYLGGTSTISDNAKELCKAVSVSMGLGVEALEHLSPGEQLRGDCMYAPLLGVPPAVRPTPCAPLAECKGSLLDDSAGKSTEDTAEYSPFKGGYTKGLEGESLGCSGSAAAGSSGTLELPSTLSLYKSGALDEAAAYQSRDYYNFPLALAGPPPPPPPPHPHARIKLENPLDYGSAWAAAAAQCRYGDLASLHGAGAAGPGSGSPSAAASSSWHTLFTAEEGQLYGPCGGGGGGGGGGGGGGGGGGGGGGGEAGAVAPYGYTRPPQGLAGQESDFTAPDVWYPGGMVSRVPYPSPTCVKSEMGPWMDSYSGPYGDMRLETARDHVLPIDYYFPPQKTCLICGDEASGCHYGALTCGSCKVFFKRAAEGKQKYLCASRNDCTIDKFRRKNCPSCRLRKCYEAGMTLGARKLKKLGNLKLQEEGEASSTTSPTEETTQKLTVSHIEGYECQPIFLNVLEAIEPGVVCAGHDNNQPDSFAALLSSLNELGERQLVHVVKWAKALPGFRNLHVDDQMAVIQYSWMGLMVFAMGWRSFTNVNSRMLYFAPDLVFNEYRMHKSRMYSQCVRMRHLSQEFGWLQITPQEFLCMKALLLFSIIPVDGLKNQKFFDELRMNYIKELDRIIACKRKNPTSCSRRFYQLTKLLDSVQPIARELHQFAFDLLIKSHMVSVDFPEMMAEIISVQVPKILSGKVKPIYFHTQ
# Chain of wild-type Androgen Receptor (AR-wt) (P10275 whole entry): as the sequence (P10275 whole entry T878A) above, with A878T counted along it
compound,measurement,setting,value
"N#Cc1ncc(N2C(=O)C3(CCC3)N(c3ccc(OC4CCNCC4)nc3)C2=S)cc1C(F)(F)F [Cpd 43, 5-[5-oxo-8-[6-(4-piperidyloxy)-3-pyridyl]-7-thioxo-6,8-diazaspiro[3.4]octan-6-yl]-3-(trifluoromethyl)pyridine-2-carbonitrile]",IC50,AR (human),0.0069 µM
same,Ki,AR (human); Cheng Prusoff,0.003 µM
same,IC50,"22RV1 cells; 22RV1, in the absence of 0.1 nM R1881, 5 days, read-out: IC50, agonist mode",492 µM
same,IC50,"22RV1 cells; 22RV1, in the presence of 0.1 nM R1881, 5 days, read-out: IC50, antagonist mode",260 µM
same,LNCaP-AR-wt ANT pIC50,"[1]; antagonist mode, pIC50 = −Log10(IC50 in Molar)",7.27
same,LNCaP-AR-wt ANT MAX % Inh,[1]; maximum % inhibition of R1881 control response over the tested concentration range,101.1%
same,IC50,"[2]; 22RV1, in the absence of 0.1 nM R1881, read-out: IC50, agonist mode",121 µM
same,IC50,"[2]; 22RV1, in the presence of 0.1 nM R1881, read-out: IC50, antagonist mode",0.348 µM
same,ASO Organ Growth (% of TP control) SVCG,[3]; [4],26.0 ± 17.8 % of TP control
same,ASO Organ Growth (% of TP control) VP,[3]; [4],24.1 ± 48.1 % of TP control
same,Reduction in ASO versus TP control,"[3]; all 5 organs, p≤0.05, 30 mg/kg",significant reduction

# From patent US10981926B2 (Janssen Pharmaceutica NV, priority 2016, dated 2021)
